# In patent US9211310B2, “Use of a Chinese medicine composition in preparing medicaments for treating secondary prevention of myocardial infarction” (TASLY PHARMACEUTICAL GROUP CO., LTD, priority 2010, dated 2015):
# Tested on: patients after acute myocardial infarction
# Assay: TCM symptom score, total and single (chest pain, chest tightness, short breath, fatigue, palpitation, spontaneous perspiration, pale complexion), same clinical trial
# Format: in vivo, human
# Description: 3508 patients who were in accordance with the diagnostic standards of AMI for 28 days to 2 years and differentiated as Qi deficiency and blood stagnation syndrome by TCM were studied. 0.5 g Chinese medicine composition prepared by the method of EXAMPLE 1 (Coded as QSYQ) was administrated half an hour after meal, 3 times per day.
# They included the overall survival time, angina pectoris score, TCM symptom score and life quality score, where angina pectoris score, TCM symptom score and life quality score were evaluated at randomization, in 1st, 3rd, 6th, 9th, 12th month after treatment and 18th month after follow-up.
# The analysis method referred to the angina pectoris score.
# [1] = 3 months after treatment-baseline, PP
# [2] = 6 months after treatment-baseline, FAS
# [3] = 6 months after treatment-baseline, PP
structure (smiles),measurement,setting,value
"CC(=O)Oc1ccccc1C(=O)O [Control group, aspirine]","change of chest pain score −6, percent of patients",[1],(0.97%)
same,"change of chest tightness score 0, number of patients",[1],994
same,"change of chest tightness score 0, percent of patients",[1],(68.88%)
same,"change of chest tightness score 3, number of patients",[1],334
same,"change of chest tightness score 3, percent of patients",[1],(23.15%)
same,"change of chest tightness score 6, number of patients",[1],34
same,"change of chest tightness score 6, percent of patients",[1],(2.36%)
same,"change of chest tightness score 9, number of patients",[1],4
same,"change of chest tightness score 9, percent of patients",[1],(0.28%)
same,"change of chest tightness score −3, number of patients",[1],70
same,"change of chest tightness score −3, percent of patients",[1],(4.85%)
same,"change of chest tightness score −6, number of patients",[1],6
same,"change of chest tightness score −6, percent of patients",[1],(0.42%)
same,"change of chest tightness score −9, number of patients",[1],1
same,"change of chest tightness score −9, percent of patients",[1],(0.07%)
same,"chest pain score 0, number of patients","3 months after treatment, FAS",656
same,"chest pain score 0, percent of patients","3 months after treatment, FAS",(38.21%)
same,"chest pain score 3, number of patients","3 months after treatment, FAS",643
same,"chest pain score 3, percent of patients","3 months after treatment, FAS",(37.45%)
same,"chest pain score 6, number of patients","3 months after treatment, FAS",410
same,"chest pain score 6, percent of patients","3 months after treatment, FAS",(23.88%)
same,"chest pain score 9, number of patients","3 months after treatment, FAS",8
same,"chest pain score 9, percent of patients","3 months after treatment, FAS",(0.47%)
same,"chest tightness score 0, number of patients","3 months after treatment, FAS",656
same,"chest tightness score 0, percent of patients","3 months after treatment, FAS",(38.21%)
same,"chest tightness score 3, number of patients","3 months after treatment, FAS",643
same,"chest tightness score 3, percent of patients","3 months after treatment, FAS",(37.45%)
same,"chest tightness score 6, number of patients","3 months after treatment, FAS",410
same,"chest tightness score 6, percent of patients","3 months after treatment, FAS",(23.88%)
same,"chest tightness score 9, number of patients","3 months after treatment, FAS",8
same,"chest tightness score 9, percent of patients","3 months after treatment, FAS",(0.47%)
same,"chest pain score 0, number of patients","3 months after treatment, PP",550
same,"chest pain score 0, percent of patients","3 months after treatment, PP",(38.01%)
same,"chest pain score 3, number of patients","3 months after treatment, PP",535
same,"chest pain score 3, percent of patients","3 months after treatment, PP",(36.97%)
same,"chest pain score 6, number of patients","3 months after treatment, PP",356
same,"chest pain score 6, percent of patients","3 months after treatment, PP",(24.60%)
same,"chest pain score 9, number of patients","3 months after treatment, PP",6
same,"chest pain score 9, percent of patients","3 months after treatment, PP",(0.41%)
same,"chest tightness score 0, number of patients","3 months after treatment, PP",550
same,"chest tightness score 0, percent of patients","3 months after treatment, PP",(38.01%)
same,"chest tightness score 3, number of patients","3 months after treatment, PP",535
same,"chest tightness score 3, percent of patients","3 months after treatment, PP",(36.97%)
same,"chest tightness score 6, number of patients","3 months after treatment, PP",356
same,"chest tightness score 6, percent of patients","3 months after treatment, PP",(24.60%)
same,"chest tightness score 9, number of patients","3 months after treatment, PP",6
same,"chest tightness score 9, percent of patients","3 months after treatment, PP",(0.41%)
same,"change of chest pain score 0, number of patients",[2],1104
same,"change of chest pain score 0, percent of patients",[2],(64.60%)
same,"change of chest pain score 3, number of patients",[2],405
same,"change of chest pain score 3, percent of patients",[2],(23.70%)
same,"change of chest pain score 6, number of patients",[2],101
same,"change of chest pain score 6, percent of patients",[2],(5.91%)
same,"change of chest pain score 9, number of patients",[2],6
same,"change of chest pain score 9, percent of patients",[2],(0.35%)
same,"change of chest pain score −3, number of patients",[2],80
same,"change of chest pain score −3, percent of patients",[2],(4.68%)
same,"change of chest pain score −6, number of patients",[2],13
same,"change of chest pain score −6, percent of patients",[2],(0.76%)
same,"change of chest pain score −9, number of patients",[2],0
same,"change of chest pain score −9, percent of patients",[2],(0.00%)
same,"change of chest tightness score 0, number of patients",[2],1105
same,"change of chest tightness score 0, percent of patients",[2],(64.66%)
same,"change of chest tightness score 1, number of patients",[2],1
same,"change of chest tightness score 1, percent of patients",[2],(0.06%)
same,"change of chest tightness score 3, number of patients",[2],459
same,"change of chest tightness score 3, percent of patients",[2],(26.86%)
same,"change of chest tightness score 6, number of patients",[2],48
same,"change of chest tightness score 6, percent of patients",[2],(2.81%)
same,"change of chest tightness score 9, number of patients",[2],4
same,"change of chest tightness score 9, percent of patients",[2],(0.23%)
same,"change of chest tightness score −3, number of patients",[2],88
same,"change of chest tightness score −3, percent of patients",[2],(5.15%)
same,"change of chest tightness score −6, number of patients",[2],3
same,"change of chest tightness score −6, percent of patients",[2],(0.18%)
same,"change of chest tightness score −9, number of patients",[2],1
same,"change of chest tightness score −9, percent of patients",[2],(0.06%)
same,"change of chest pain score 0, number of patients",[3],919
same,"change of chest pain score 0, percent of patients",[3],(64.54%)
same,"change of chest pain score 3, number of patients",[3],352
same,"change of chest pain score 3, percent of patients",[3],(24.72%)
same,"change of chest pain score 6, number of patients",[3],86
same,"change of chest pain score 6, percent of patients",[3],(6.04%)
same,"change of chest pain score 9, number of patients",[3],5
same,"change of chest pain score 9, percent of patients",[3],(0.35%)
same,"change of chest pain score −3, number of patients",[3],57
same,"change of chest pain score −3, percent of patients",[3],(4.00%)
same,"change of chest pain score −6, number of patients",[3],5
same,"change of chest pain score −6, percent of patients",[3],(0.35%)
same,"change of chest pain score −9, number of patients",[3],0
same,"change of chest pain score −9, percent of patients",[3],(0.00%)
same,"change of chest tightness score 0, number of patients",[3],904
same,"change of chest tightness score 0, percent of patients",[3],(63.44%)
same,"change of chest tightness score 1, number of patients",[3],1
same,"change of chest tightness score 1, percent of patients",[3],(0.07%)
same,"change of chest tightness score 3, number of patients",[3],407
same,"change of chest tightness score 3, percent of patients",[3],(28.56%)
same,"change of chest tightness score 6, number of patients",[3],42
same,"change of chest tightness score 6, percent of patients",[3],(2.95%)
same,"change of chest tightness score 9, number of patients",[3],3
same,"change of chest tightness score 9, percent of patients",[3],(0.21%)
same,"change of chest tightness score −3, number of patients",[3],64
same,"change of chest tightness score −3, percent of patients",[3],(4.49%)
same,"change of chest tightness score −6, number of patients",[3],3
same,"change of chest tightness score −6, percent of patients",[3],(0.21%)
same,"change of chest tightness score −9, number of patients",[3],1
same,"change of chest tightness score −9, percent of patients",[3],(0.07%)
same,"chest pain score 0, number of patients","6 months after treatment, FAS",729
same,"chest pain score 0, percent of patients","6 months after treatment, FAS",(42.43%)
same,"chest pain score 3, number of patients","6 months after treatment, FAS",638
same,"chest pain score 3, percent of patients","6 months after treatment, FAS",(37.14%)
same,"chest pain score 6, number of patients","6 months after treatment, FAS",345
same,"chest pain score 6, percent of patients","6 months after treatment, FAS",(20.08%)
same,"chest pain score 9, number of patients","6 months after treatment, FAS",6
same,"chest pain score 9, percent of patients","6 months after treatment, FAS",(0.35%)
same,"chest tightness score 0, number of patients","6 months after treatment, FAS",729
same,"chest tightness score 0, percent of patients","6 months after treatment, FAS",(42.43%)
same,"chest tightness score 3, number of patients","6 months after treatment, FAS",638
same,"chest tightness score 3, percent of patients","6 months after treatment, FAS",(37.14%)
same,"chest tightness score 6, number of patients","6 months after treatment, FAS",345
same,"chest tightness score 6, percent of patients","6 months after treatment, FAS",(20.08%)
same,"chest tightness score 9, number of patients","6 months after treatment, FAS",6
same,"chest tightness score 9, percent of patients","6 months after treatment, FAS",(0.35%)
same,"chest pain score 0, number of patients","6 months after treatment, PP",613
